Assay results as given in ChEMBL document CHEMBL3885861, “Open TG-GATES”.

Organism: Rattus norvegicus
Assay: Open TG-GATES - Regimen: Single
Type: toxicity, organism-based, Sprague-Dawley
Design: regimen Single, gender Male, age 6 weeks
Conditions: in vivo, po, route gavage; for Bas / Eos / Fbg / Hb / Ht / Lym / MCHC / Mono / Plat / RBC / Ret / WBC / MCH / Neu / PT: tissue Blood; for KIDNEY_L / KIDNEY_R / KIDNEY_TOTAL: tissue Kidney; for LIVER: tissue Liver
[1] = 40 mg/kg, 24 h, tissue Plasma, dose level Low
[2] = 120 mg/kg, 3 h, dose level Middle
[3] = 120 mg/kg, 3 h, tissue Plasma, dose level Middle
[4] = 120 mg/kg, 6 h, dose level Middle
[5] = 120 mg/kg, 6 h, tissue Plasma, dose level Middle
[6] = 120 mg/kg, 9 h, dose level Middle
[7] = 120 mg/kg, 9 h, tissue Plasma, dose level Middle
[8] = 120 mg/kg, 24 h, dose level Middle
[9] = 120 mg/kg, 24 h, tissue Plasma, dose level Middle
[10] = 400 mg/kg, 3 h, dose level High
[11] = 400 mg/kg, 3 h, tissue Plasma, dose level High
[12] = 400 mg/kg, 6 h, dose level High
[13] = 400 mg/kg, 6 h, tissue Plasma, dose level High
[14] = 400 mg/kg, 9 h, dose level High
[15] = 400 mg/kg, 9 h, tissue Plasma, dose level High
[16] = 400 mg/kg, 24 h, dose level High
[17] = 400 mg/kg, 24 h, tissue Plasma, dose level High

Compound: CCC(C)(C)C(=O)O[C@H]1C[C@@H](C)C=C2C=C[C@H](C)[C@H](CC[C@@H]3C[C@@H](O)CC(=O)O3)[C@H]21 [SIMVASTATIN]
- TC [1]: 80.8 mg/dL
- TG [1]: 87.4 mg/dL
- TP [1]: 5.4 g/dL
- gamma-GTP [1]: 1.8 IU/L
- TERMINAL_BW [2]: 200.4 g
- Bas [2]: 0%
- Eos [2]: 1%
- Fbg [2]: 194.4 mg/dL
- Hb [2]: 12.5 g/dL
- Ht [2]: 37.9%
- Lym [2]: 81.8%
- MCHC [2]: 32.9%
- Mono [2]: 6.4%
- Plat [2]: 111.3 x10_4/uL
- RBC [2]: 573.6 x10_4/ul
- Ret [2]: 9.1%
- WBC [2]: 131.2 x10_2/uL
- KIDNEY_L [2]: 0.9 g
- KIDNEY_R [2]: 1 g
- KIDNEY_TOTAL [2]: 1.9 g
- LIVER [2]: 9.6 g
- ALP [3]: 1022 IU/L
- ALT [3]: 34.2 IU/L
- AST [3]: 66.6 IU/L
- BUN [3]: 11.6 mg/dL
- CRE [3]: 0.5 mg/dL
- DBIL [3]: 0.032 mg/dL
- IP [3]: 8.9 mg/dL
- K [3]: 4.7 meq/L
- LDH [3]: 117.2 IU/L
- Na [3]: 137.8 meq/L
- PL [3]: 134.8 mg/dL
- RALB [3]: 3.5 g/dL
- TBIL [3]: 0.3 mg/dL
- TC [3]: 74 mg/dL
- TG [3]: 56 mg/dL
- TP [3]: 5.5 g/dL
- gamma-GTP [3]: 1.6 IU/L
- TERMINAL_BW [4]: 200.1 g
- Bas [4]: 0%
- Eos [4]: 0.6%
- Fbg [4]: 203.2 mg/dL
- Hb [4]: 12.9 g/dL
- Ht [4]: 39.4%
- Lym [4]: 77.6%
- MCH [4]: 21.6 pg
- MCHC [4]: 32.9%
- Mono [4]: 6%
- Neu [4]: 15.8%
- PT [4]: 11.9 s
- Plat [4]: 114.7 x10_4/uL
- RBC [4]: 600.4 x10_4/ul
- Ret [4]: 8.4%
- WBC [4]: 123.6 x10_2/uL
- KIDNEY_L [4]: 0.9 g
- KIDNEY_R [4]: 0.9 g
- KIDNEY_TOTAL [4]: 1.8 g
- LIVER [4]: 8.9 g
- ALP [5]: 912.2 IU/L
- ALT [5]: 28.6 IU/L
- AST [5]: 57.2 IU/L
- CRE [5]: 0.5 mg/dL
- DBIL [5]: 0.086 mg/dL
- IP [5]: 9.6 mg/dL
- K [5]: 4.5 meq/L
- LDH [5]: 94 IU/L
- Na [5]: 137.6 meq/L
- PL [5]: 119 mg/dL
- RALB [5]: 3.5 g/dL
- TBIL [5]: 0.4 mg/dL
- TC [5]: 66.4 mg/dL
- TG [5]: 44 mg/dL
- TP [5]: 5.4 g/dL
- gamma-GTP [5]: 1.4 IU/L
- TERMINAL_BW [6]: 199.1 g
- Bas [6]: 0%
- Eos [6]: 1%
- Fbg [6]: 217.2 mg/dL
- Hb [6]: 12.9 g/dL
- Ht [6]: 39.5%
- Lym [6]: 77%
- MCH [6]: 21.6 pg
- MCHC [6]: 32.6%
- Mono [6]: 6%
- Neu [6]: 16.6%
- PT [6]: 11.8 s
- Plat [6]: 106.6 x10_4/uL
- RBC [6]: 598.2 x10_4/ul
- Ret [6]: 9%
- WBC [6]: 82.6 x10_2/uL
- KIDNEY_L [6]: 0.9 g
- KIDNEY_R [6]: 0.9 g
- KIDNEY_TOTAL [6]: 1.8 g
- LIVER [6]: 8.3 g
- ALP [7]: 788.6 IU/L
- ALT [7]: 30.8 IU/L
- AST [7]: 57.4 IU/L
- CRE [7]: 0.5 mg/dL
- DBIL [7]: 0.026 mg/dL
- K [7]: 4.7 meq/L
- LDH [7]: 88.2 IU/L
- Na [7]: 137.6 meq/L
- PL [7]: 119.4 mg/dL
- RALB [7]: 3.7 g/dL
- TBIL [7]: 0.3 mg/dL
- TC [7]: 70.6 mg/dL
- TG [7]: 29.6 mg/dL
- TP [7]: 5.4 g/dL
- gamma-GTP [7]: 1 IU/L
- TERMINAL_BW [8]: 207.4 g
- Bas [8]: 0%
- Eos [8]: 1%
- Fbg [8]: 209.2 mg/dL
- Hb [8]: 12.8 g/dL
- Ht [8]: 39.1%
- Lym [8]: 79.2%
- MCHC [8]: 32.8%
- Mono [8]: 6.2%
- Neu [8]: 14%
- Plat [8]: 123 x10_4/uL
- RBC [8]: 586 x10_4/ul
- Ret [8]: 8.3%
- WBC [8]: 87 x10_2/uL
- KIDNEY_L [8]: 1 g
- KIDNEY_R [8]: 1 g
- KIDNEY_TOTAL [8]: 2 g
- ALP [9]: 811 IU/L
- ALT [9]: 44 IU/L
- AST [9]: 67.8 IU/L
- BUN [9]: 18 mg/dL
- CRE [9]: 0.5 mg/dL
- DBIL [9]: 0.044 mg/dL
- IP [9]: 7.5 mg/dL
- K [9]: 4.7 meq/L
- LDH [9]: 127.8 IU/L
- Na [9]: 139.6 meq/L
- PL [9]: 129.4 mg/dL
- RALB [9]: 3.9 g/dL
- TBIL [9]: 0.4 mg/dL
- TC [9]: 69.4 mg/dL
- TP [9]: 5.5 g/dL
- gamma-GTP [9]: 2.4 IU/L
- TERMINAL_BW [10]: 201.6 g
- Bas [10]: 0%
- Eos [10]: 0.8%
- Fbg [10]: 211.2 mg/dL
- Hb [10]: 12.2 g/dL
- Ht [10]: 37.3%
- Lym [10]: 80.4%
- MCH [10]: 21.5 pg
- MCHC [10]: 32.8%
- Mono [10]: 8.4%
- Neu [10]: 10.8%
- PT [10]: 11.3 s
- Plat [10]: 110.1 x10_4/uL
- RBC [10]: 569 x10_4/ul
- Ret [10]: 10.9%
- WBC [10]: 116.1 x10_2/uL
- KIDNEY_L [10]: 1 g
- KIDNEY_R [10]: 1 g
- KIDNEY_TOTAL [10]: 2 g
- LIVER [10]: 9.3 g
- ALP [11]: 914.4 IU/L
- ALT [11]: 30.8 IU/L
- AST [11]: 61.6 IU/L
- BUN [11]: 11.8 mg/dL
- CRE [11]: 0.5 mg/dL
- DBIL [11]: 0.062 mg/dL
- IP [11]: 8.3 mg/dL
- K [11]: 4.7 meq/L
- LDH [11]: 107.8 IU/L
- Na [11]: 136.8 meq/L
- PL [11]: 131.4 mg/dL
- RALB [11]: 3.6 g/dL
- TBIL [11]: 0.3 mg/dL
- TC [11]: 74.2 mg/dL
- TG [11]: 37 mg/dL
- TP [11]: 5.6 g/dL
- gamma-GTP [11]: 1.2 IU/L
- TERMINAL_BW [12]: 205 g
- Bas [12]: 0%
- Eos [12]: 1%
- Fbg [12]: 209.4 mg/dL
- Hb [12]: 12.5 g/dL
- Ht [12]: 38.1%
- Lym [12]: 80.8%
- MCH [12]: 21.6 pg
- MCHC [12]: 32.7%
- Mono [12]: 4.2%
- Neu [12]: 14.6%
- PT [12]: 12.1 s
- Plat [12]: 109.4 x10_4/uL
- RBC [12]: 578.2 x10_4/ul
- Ret [12]: 11%
- KIDNEY_L [12]: 1 g
- KIDNEY_R [12]: 1 g
- KIDNEY_TOTAL [12]: 1.9 g
- LIVER [12]: 8.8 g
- ALP [13]: 979 IU/L
- ALT [13]: 29.4 IU/L
- AST [13]: 60.2 IU/L
- BUN [13]: 9.8 mg/dL
- CRE [13]: 0.5 mg/dL
- DBIL [13]: 0.078 mg/dL
- IP [13]: 9.6 mg/dL
- K [13]: 4.9 meq/L
- LDH [13]: 86 IU/L
- Na [13]: 137.2 meq/L
- PL [13]: 108 mg/dL
- RALB [13]: 3.4 g/dL
- TBIL [13]: 0.4 mg/dL
- TC [13]: 59 mg/dL
- TG [13]: 41.2 mg/dL
- TP [13]: 5.5 g/dL
- gamma-GTP [13]: 1.4 IU/L
- TERMINAL_BW [14]: 198.2 g
- Bas [14]: 0%
- Eos [14]: 0.6%
- Fbg [14]: 204.6 mg/dL
- Hb [14]: 12.5 g/dL
- Ht [14]: 37.7%
- Lym [14]: 80.8%
- MCHC [14]: 33.1%
- Mono [14]: 3.2%
- Neu [14]: 15.2%
- PT [14]: 12.6 s
- Plat [14]: 110.7 x10_4/uL
- RBC [14]: 576.4 x10_4/ul
- Ret [14]: 9.6%
- WBC [14]: 131.2 x10_2/uL
- KIDNEY_L [14]: 0.9 g
- KIDNEY_R [14]: 0.9 g
- KIDNEY_TOTAL [14]: 1.9 g
- LIVER [14]: 7.8 g
- ALP [15]: 778 IU/L
- ALT [15]: 30.2 IU/L
- AST [15]: 61.2 IU/L
- BUN [15]: 10.2 mg/dL
- CRE [15]: 0.6 mg/dL
- DBIL [15]: 0.066 mg/dL
- GLC [15]: 209 mg/dL
- K [15]: 5.2 meq/L
- LDH [15]: 86 IU/L
- Na [15]: 137.4 meq/L
- PL [15]: 100 mg/dL
- RALB [15]: 3.5 g/dL
- TBIL [15]: 0.3 mg/dL
- TC [15]: 56.8 mg/dL
- TG [15]: 24 mg/dL
- TP [15]: 5.1 g/dL
- gamma-GTP [15]: 1.2 IU/L
- TERMINAL_BW [16]: 201.5 g
- Bas [16]: 0%
- Eos [16]: 0.8%
- Fbg [16]: 218.6 mg/dL
- Hb [16]: 13.9 g/dL
- Ht [16]: 42.3%
- Lym [16]: 80.6%
- MCHC [16]: 32.8%
- Mono [16]: 4.6%
- Neu [16]: 14.4%
- PT [16]: 11.3 s
- Plat [16]: 125.3 x10_4/uL
- RBC [16]: 647.8 x10_4/ul
- Ret [16]: 7.9%
- WBC [16]: 86.8 x10_2/uL
- KIDNEY_L [16]: 1 g
- KIDNEY_R [16]: 1 g
- KIDNEY_TOTAL [16]: 1.9 g
- LIVER [16]: 9.9 g
- ALP [17]: 760.8 IU/L
- ALT [17]: 99 IU/L
- AST [17]: 81.6 IU/L
- BUN [17]: 15.2 mg/dL
- CRE [17]: 0.6 mg/dL
- DBIL [17]: 0.07 mg/dL
- IP [17]: 7.1 mg/dL
- K [17]: 5.2 meq/L
- LDH [17]: 117.6 IU/L
- Na [17]: 137.4 meq/L
- PL [17]: 93.6 mg/dL
- RALB [17]: 3.8 g/dL
- TBIL [17]: 0.4 mg/dL
- TC [17]: 53.6 mg/dL
- TG [17]: 38.4 mg/dL
- TP [17]: 5.4 g/dL
- gamma-GTP [17]: 1.4 IU/L
